From article PMC11982232, “Factors affecting irreversible inhibition of EGFR and influence of chirality on covalent binding” (Communications Chemistry, 2025)

Legend:
[1] = test system: GSH; assay: GSH reactivity (glutathione half-life); format: physicochemical; settings: 4.6 mM glutathione (GSH) in phosphate buffer; 4.6 mM GSH, 50 µM compound, pH 7.4 phosphate buffer, 37 °C; read-out: GSH t1/2 (converted)
Experimental: Compounds were suspended to 10 mM in 100% DMSO and were added to 4.6 mM GSH to achieve the final compound concentration of 50 µM in pH 7.4 phosphate buffer before incubating at 37 °C. Compound reaction with GSH was monitored by LC-MS on a Waters Acquity UPLC system with PDA and ELSD operating in positive and negative ion electrospray mode, employing an Acquity UPLC BEH C18, […], 2.1 × 50 mm column with 0.1% formic acid and water-acetonitrile (5–95%) for gradient elution over 4 minutes.

[2] = target: T1, EGFR WT (Homo sapiens, UniProt P00533); assay: TR-FRET probe displacement assay, EGFR WT; format: binding; settings: for WT pIC50 / IC50: 30 min incubation, mean of at least 3 replicates; for IC50: read-out: WT pIC50 (converted)
T1 construct: made in house; host or cells: Sf9 insect cells (MultiBac baculovirus)
T1 sequence (P00533 25-1210): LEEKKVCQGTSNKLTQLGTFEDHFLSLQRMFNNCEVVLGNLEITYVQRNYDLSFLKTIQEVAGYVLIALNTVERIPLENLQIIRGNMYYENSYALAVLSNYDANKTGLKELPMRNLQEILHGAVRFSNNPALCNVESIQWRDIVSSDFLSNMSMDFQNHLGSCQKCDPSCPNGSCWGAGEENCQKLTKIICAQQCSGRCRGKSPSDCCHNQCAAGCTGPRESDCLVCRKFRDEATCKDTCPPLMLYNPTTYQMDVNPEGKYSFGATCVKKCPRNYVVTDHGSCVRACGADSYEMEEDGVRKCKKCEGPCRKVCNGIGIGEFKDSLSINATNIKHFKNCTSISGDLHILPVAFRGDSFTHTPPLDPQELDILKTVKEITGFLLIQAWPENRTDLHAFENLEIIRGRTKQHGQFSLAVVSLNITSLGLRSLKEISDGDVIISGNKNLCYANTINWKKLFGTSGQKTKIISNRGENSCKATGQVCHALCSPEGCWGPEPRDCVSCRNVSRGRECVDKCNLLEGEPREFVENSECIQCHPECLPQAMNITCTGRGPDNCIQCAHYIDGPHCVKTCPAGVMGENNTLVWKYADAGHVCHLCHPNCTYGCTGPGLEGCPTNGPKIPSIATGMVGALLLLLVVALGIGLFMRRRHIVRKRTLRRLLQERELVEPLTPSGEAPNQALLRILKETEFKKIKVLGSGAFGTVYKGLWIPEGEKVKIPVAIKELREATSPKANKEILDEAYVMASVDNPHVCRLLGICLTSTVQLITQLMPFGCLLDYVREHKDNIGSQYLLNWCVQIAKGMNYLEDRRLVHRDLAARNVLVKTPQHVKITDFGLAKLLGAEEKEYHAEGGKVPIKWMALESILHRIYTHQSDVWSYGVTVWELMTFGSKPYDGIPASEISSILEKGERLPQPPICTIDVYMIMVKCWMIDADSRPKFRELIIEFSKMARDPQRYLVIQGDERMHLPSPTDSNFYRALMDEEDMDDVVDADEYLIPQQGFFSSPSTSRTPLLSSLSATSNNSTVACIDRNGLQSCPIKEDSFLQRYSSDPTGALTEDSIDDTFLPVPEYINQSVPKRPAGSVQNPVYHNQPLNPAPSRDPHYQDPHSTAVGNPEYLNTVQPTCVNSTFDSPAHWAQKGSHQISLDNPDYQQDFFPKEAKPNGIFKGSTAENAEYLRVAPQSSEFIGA
Experimental: (§1) The binding mode of gefitinib, typical of an anilinoquinazoline-based kinase inhibitor, is well characterised, with the morpholine side-chain extending into the solvent exposed region where a variety of substituents are tolerated. […] Accordingly, probe compound 6 was prepared, in which the morpholine was replaced by a piperazine and a BODIPY fluorophore was attached via a 4-aminobutanoate spacer (Fig. 3a). A related sapitinib-derived tracer has subsequently been described. Compound 6 was employed in a time-resolved Förster-resonance energy transfer (TR-FRET) assay with EGFR bound to a terbium-containing antibody (Fig. 3b). In line with our previous work exploring the activity of anilinoquinazoline-based acrylamide TCIs[14], the incubation time for the assay was set at 30 mins.
(§2) Compounds (dissolved to 10 mM in DMSO) were dispensed into black low-volume 384 well assay plates (Corning) over a final concentration range of 100000, 30,000, 10,000, 3000, 1000, 300, 100, 30, 10, and 3 nM using an Echo 550 (Labcyte). Positive control compound and DMSO as a negative control were dispensed into the first and last well, respectively. Each well was backfilled with DMSO to a final volume of 200 nl, resulting in final assay DMSO concentrations of 1%. […] Plates were read using a PheraStar FS (BMG Labtech) at Ex337nm […]. The data were analysed using GraphPad Prism/Dotmatics Studies Software. Assays were conducted in technical replicate and repeated as a biological duplicate.

[3] = target: T2, EGFR DM (L858R/T790M) (Homo sapiens, UniProt P00533, L858R/T790M); assay: TR-FRET probe displacement assay, EGFR DM; format: binding; settings: for DM pIC50 / IC50: 30 min incubation, mean of at least 3 replicates; for IC50: read-out: DM pIC50 (converted)
T2 construct: His tag
T2 sequence (P00533 25-1210 T790M/L858R): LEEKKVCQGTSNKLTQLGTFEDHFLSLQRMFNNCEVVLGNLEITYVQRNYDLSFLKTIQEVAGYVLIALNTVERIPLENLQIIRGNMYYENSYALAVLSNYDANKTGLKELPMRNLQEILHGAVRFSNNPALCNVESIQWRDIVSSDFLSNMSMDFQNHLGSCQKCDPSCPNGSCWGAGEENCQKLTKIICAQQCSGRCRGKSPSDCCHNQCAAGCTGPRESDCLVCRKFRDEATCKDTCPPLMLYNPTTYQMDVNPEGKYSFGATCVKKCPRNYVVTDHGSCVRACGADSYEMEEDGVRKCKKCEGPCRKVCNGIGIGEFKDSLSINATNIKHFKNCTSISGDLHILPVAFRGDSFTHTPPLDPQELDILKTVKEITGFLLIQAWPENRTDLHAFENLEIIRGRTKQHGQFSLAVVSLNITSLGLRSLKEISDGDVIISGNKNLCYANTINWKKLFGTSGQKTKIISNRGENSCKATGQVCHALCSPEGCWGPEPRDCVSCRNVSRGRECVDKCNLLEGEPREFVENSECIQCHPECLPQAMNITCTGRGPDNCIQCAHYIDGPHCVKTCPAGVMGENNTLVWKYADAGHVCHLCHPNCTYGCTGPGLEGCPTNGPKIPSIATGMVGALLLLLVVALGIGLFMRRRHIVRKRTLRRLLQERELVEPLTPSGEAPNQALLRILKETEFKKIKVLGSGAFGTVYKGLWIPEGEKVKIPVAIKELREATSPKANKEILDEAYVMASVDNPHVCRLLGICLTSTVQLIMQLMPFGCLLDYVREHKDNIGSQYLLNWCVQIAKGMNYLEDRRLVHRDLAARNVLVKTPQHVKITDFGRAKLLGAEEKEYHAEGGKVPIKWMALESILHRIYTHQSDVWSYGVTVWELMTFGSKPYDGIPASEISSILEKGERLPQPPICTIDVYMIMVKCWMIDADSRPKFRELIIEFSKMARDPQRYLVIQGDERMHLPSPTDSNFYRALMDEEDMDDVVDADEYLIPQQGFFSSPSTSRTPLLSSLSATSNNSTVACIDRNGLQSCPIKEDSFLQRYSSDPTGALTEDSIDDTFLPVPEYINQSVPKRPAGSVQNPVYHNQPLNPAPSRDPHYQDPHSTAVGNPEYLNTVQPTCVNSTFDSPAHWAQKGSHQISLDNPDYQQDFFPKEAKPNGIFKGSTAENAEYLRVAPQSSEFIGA
Experimental: as §1, §2

[4] = test system: pEGFR in WT EGFR overexpressing A431 cells; assay: Cellular pEGFR inhibition by HTRF in A431 cells; format: cell-based; settings: Homo sapiens, A-431, n = 1, read-out: pIC50 (A431) cellular pEGFR inhibition (converted)
Experimental: (§3) Cells were plated at 20,000 cells per well in 96 well plates and placed at 37°C 5% CO2. Once adhered (after 24 h) cells were treated with compounds dissolved in DMSO at a final concentration of 0.1% DMSO in media. Compounds were diluted in media then added to cells for 2.5 hours in duplicate. 100 ng/ml EGF (ThermoFisher, PHG0311) was is added to all compound treated cells as well as a control for 30 mins. Compound and media were removed from the cells, then 50ul of HTRF lysis buffer was added (lysis buffer was diluted from 4X stock to 1X in DI water, with 1% blocking agent also added). Cells were lysed on a plate shaker (2000 rpm) for 30 minutes at room temperature. pEGFR expression was monitored using the Cisbio Phospho-EGFR (Tyr1068) cellular kit (64EG1PEH). Total EGFR expression was monitored using the Cisbio Total EGFR cellular kit (64NG1PEH) as per manufacturer’s instructions. Fluorescence emission was read at two different wavelengths (665 nm and 620 nm) on a PheraStar. Results were calculated as the ratio of pEGFR/ total EGFR and then the percentage of 0 µM control. Data is n = 1 from 2 replicates.

[5] = test system: pEGFR in DM expressing H1975 cells; assay: Cellular pEGFR inhibition by HTRF in H1975 cells; format: cell-based; settings: Homo sapiens, NCI-H1975, n = 1, read-out: pIC50 (H1975) cellular pEGFR inhibition (converted)
Experimental: as §3

[6] = test system: A431 cells; assay: Growth inhibition in A431 cells (SRB, 72 h); format: cell-based; settings: Homo sapiens, A-431, A431 cell viability, n = 1
Experimental: A431 cells purchased from ECACC, Cat. 85090402, were plated on day 0 in a 96-well plate at a density known to allow for exponential growth over 72 h in DMEM (Sigma-Aldrich, Cat No. D5796) supplemented with 10% FBS (Gibco, Cat No. 10270-106). On day 1, the compounds were diluted to the required concentration in DMEM + 10% FBS media, ensuring that the final DMSO concentration was 0.1% once added to cells. The cells were then incubated for 72 h at 37 °C with 5% CO2. Cells were then fixed by adding 50% (wt/vol) TCA to each well of the plate and left at 4 °C for 1 h. The plates were then washed thoroughly with water, 100 μL of 0.4% SRB solution was added to the wells, and left at room temperature for 30 min. The plates were rinsed with 1% AcOH and then left to air-dry in a drying cabinet for 1 h. Once dry, 100 μL of 10 mM tris pH 10.5 was added to each well and the plates were placed on a plate shaker for 10 min. The absorbance was read at 570 nm using a FluoStar Omega plate reader. Data is n = 1 from 3 replicates, […]

[7] = target: T3, WT EGFR (Homo sapiens, UniProt P00533); assay: Intact protein mass spectrometry; format: binding; settings: 15 µM compound, 4 µM EGFR, 4 hr, ambient temperature
T3 construct: AssayQuant Technologies Inc. (contract measurement)
T3 sequence (P00533 25-1210): as the sequence (P00533 25-1210) above
Experimental: Compounds were suspended to 10 mM in 100% DMSO and were added to 4 µM EGFR to achieve the final compound concentration of 15 µM in 1% DMSO, in 25 mM TRIS pH8, 150 mM NaCL, 5% glycerol before incubating at ambient temperature for the 4 hr time prior to analysis. […] 1 µL of purified protein (~1 mg/mL) was injected onto a MS Pac DS-10 Desalter cartridge ((Thermo Fisher Scientific), PN: 089170, 2.1 × 10 mm) for desalting and reversed phase separation at 70 °C. The mobile phase was 0.1% (v/v) formic acid in LC-MS grade water (A) and LC-MS grade acetonitrile (B) with separation performed over 7.5 min. […] Proteins were detected in positive ion mode using electrospray ionisation with nebuliser pressure of 45 psig, drying gas flow of 5 L/min, and source gas temperature of 325 °C. Sheath gas temperature of 400 °C and gas flow of 11 L/min, capillary voltage of 3500 V and nozzle voltage of 2000V were also used. Mass spectra were acquired using MassHunter Acquisition software (version B.08.00) over a mass range of 100–3000 m/z, at a rate of 1 spectra/s and 1000 ms/spectrum in standard mass range (3200 m/z) at 2 GHz. The instrument had been calibrated over the selected mass range prior to analysis.

Question: How did the half-life at 50 µM [1] turn out when C=CC(=O)Nc1cc(Nc2nccc(-c3cn(C)c4ccccc34)n2)c(OC)cc1N(C)CCN(C)C [Compound 2, osimertinib, reference compound] was run?
Answer: 2.5 h

Question: Which Kd ([2]; fluorescent probe) does the source give for COc1cc2ncnc(Nc3ccc(F)c(Cl)c3)c2cc1OCCCN1CCN(C(=O)CCCNC(=O)CCc2ccc3n2[B-](F)(F)[N+]2=C(C)C=C(C)C2=C3)CC1 [Compound 6, N-(4-(4-(3-((4-((3-chloro-4-fluorophenyl)amino)-7-methoxyquinazolin-6-yl)oxy)propyl)piperazin-1-yl)-4-oxobutyl)-3-(5,5-difluoro-7,9-dimethyl-5H-5l4,6l4-dipyrrolo[1,2-c:2’,1’-f][1,3,2]diazaborinin-3-yl)propenamide, reference compound] here?
Answer: 1600 ± 190 nM

Question: What about the Kd ([3]; fluorescent probe) of the same compound?
Answer: 3000 ± 1600 nM

Question: How did the “WT pIC50” value [2] turn out when C=CC(=O)N1CCC(Oc2cc3c(Nc4cccc(Cl)c4F)ncnc3cc2OC)CC1 [Compound 7] was run?
Answer: 8.8 ± 0.1

Question: And the “DM pIC50” value [3]?
Answer: 8.4 ± 0.03

Question: C=CC(=O)N1CCC(Oc2cc3c(Nc4ccc(F)c(Cl)c4)ncnc3cc2OC)CC1 [Compound 8] was tested. Which “WT pIC50” value [2] did it give?
Answer: 8.3 ± 0.07

Question: And the “DM pIC50” value [3]?
Answer: 8.0 ± 0.6

Question: For C=CC(=O)N1CC[C@@H](Oc2cc3c(Nc4ccc(F)c(Cl)c4)ncnc3cc2OC)C1 [Compound 16], which IC50 [2] is on record?
Answer: 316 nM

Question: And the IC50 [3]?
Answer: 100 nM

Question: And the half-life at 50 µM [1]?
Answer: 36 h

Question: And the IC50 [4]?
Answer: 79.4 nM

Question: And the IC50 [5]?
Answer: 2510 nM

Question: What about the GI50 [6] of the same compound?
Answer: 316 nM

Question: What does the source list for C=CC(=O)N1CC[C@H](Oc2cc3c(Nc4ccc(F)c(Cl)c4)ncnc3cc2OC)C1 [Compound 17]?
Answer: IC50 [2]: 5.01 nM; IC50 [3]: 6.31 nM; half-life at 50 µM [1]: 41 h; level of protein modification compared to 16 [7]: two-fold increase; IC50 [4]: < 10 nM; IC50 [5]: 25.1 nM; GI50 [6]: 7.94 nM

Question: Which IC50 [2] does the source give for COc1cc2ncnc(Nc3ccc(F)c(Cl)c3)c2cc1O[C@@H]1CCN(C(C)=O)C1 [Compound 22] here?
Answer: 39.8 nM

Question: What about the IC50 [3] of the same compound?
Answer: 25.1 nM

Question: For COc1cc2ncnc(Nc3ccc(F)c(Cl)c3)c2cc1O[C@H]1CCN(C(C)=O)C1 [Compound 23], which IC50 [2] is on record?
Answer: 126 nM

Question: And the IC50 [3]?
Answer: 31.6 nM
